Where two headings read alike, the source gives them in different places.
Experiments:
[1] = tested on: blood-brain barrier; assay: Blood-brain barrier integrity: extravascular IgG and fibrin deposits, ZO-1 tight junction length
Experimental: (§1) Animals were sacrificed at 3 days post DT or vehicle treatment (FIG. 3A) or 15 days post DT or vehicle treatment (FIG. 4A) as indicated, and brains were collected and analyzed.
(§2) Animals were anesthetized with an i.p. injection of 100 mg/kg of ketamine and 50 mg/kg of 10 xylazine, and transcardially perfused first with 15 ml saline, followed by 20 ml of 4% paraformaldehyde (PFA) in PBS. Brains were removed, and post-fixed overnight at 4° C. before brain sections were cut at 30 μm thickness. Sections were blocked with 5% normal donkey serum (Vector Laboratories)/0.1% Triton-X/0.01M PBS and incubated with primary antibody diluted in blocking solution overnight at 4° C. […] To visualize brain microvessels, sections were incubated with Dylight 488-conjugated L. esculentum Lectin as the Inventors have previously reported. […] Sections were imaged with a Zeiss LSM 510 confocal laser-scanning microscope using a series of high-resolution optical sections (1,024×1,024-pixel format) that were captured with a 25× water-immersion objective, with 1× zoom at 1-μm step intervals for Z-stacks. Laser settings for gain, digital offset and laser intensity were kept standardized between different treatments and experiments. Z-stack projections and pseudo-coloring were performed using ZEN software (Carl Zeiss Microimaging), and image post-analysis were performed using ImageJ software.
For each image, ten microns maximum projection z-stacks were reconstructed and analyzed using ImageJ. The levels of extravascular blood-derived fibrin and IgG deposits indicating BBB breakdown were determined as previously described.
For each image, ten microns maximum projection z-stacks were reconstructed and analyzed using ImageJ. The length of ZO-1-positive tight junctions occupying lectin-positive capillary profiles was determined using the NeuronJ plugin for ImageJ, expressed as the length of ZO-1 (mm) over the lectin-positive capillary area (mm^2) as the Inventors have previously reported. ZO-1 and lectin stainings were performed as described above. The length of ZO1-positive tight junctions was normalized to the total area of lectin-positive microvessels using the Image J Area measurement tool.

[2] = tested on: cerebral blood flow (CBF) response; assay: Cerebral blood flow responses by laser-Doppler flowmetry
Experimental: as §1
Animals were initially anesthetized with 100 mg/kg of ketamine and 50 mg/kg of xylazine and were placed on a heating pad (37° C.). The cranium of the mouse was firmly secured in a stereotaxic frame. A high speed dental drill (tip FST 19007-05, Fine Science Tools Inc., Foster City, Calif.) was used to thin a square cranial window about 2×2 mm over the parietal cortex, and 45 degree forceps were used to remove the square piece of skull. Gelfoam (Pharmacia & Upjohn Company, Kalamazoo, Mass.) was applied immediately to control any cranial or dural bleeding. A sterile 5 mm glass cover slip was then placed on the dura mater and sealed with a 1:1 mixture of bone cement and cyanoacrylate based glue.
CBF responses to hindlimb stimulation in anesthetized mice (˜1% isoflurane) were determined using laser-Doppler flowmetry as previously described. The tip of the laser-Doppler probe (Transonic Systems Inc., Ithaca, N.Y.) was stereotaxically placed 0.5 mm above the cranial window over the hindlimb region of the primary somatosensory cortical area. CBF was recorded following electrical stimulation of the hind-limb using a 60 s long stimulus (7 Hz, 2 ms pulse duration). The percentage increase in CBF due to stimulation was obtained by subtracting the baseline CBF from the stable maximum plateau value reached during stimulus, and averaged over three trials per mouse. For CBF response to drug application, the LDF probe was placed stereotaxically over the center of an open cranial window (center at AP=−0.94 mm, L=1.5 mm). Drugs (10 μM Acetylcholine, and 400 μM Adenosine, all from Sigma) were superfused individually over the window, and responses recorded, as the Inventors reported previously. Arterial blood pressure was monitored continuously during the experiment. pH and blood gases were monitored before and after CBF recordings.

[3] = tested on: hippocampal function; assay: Behavioral tests: novel object location and contextual fear conditioning; type: in vivo, mouse
Experimental: Novel object location test was performed as the Inventors have previously reported. Animals were placed in a […] and allowed to habituate to the testing area for 10 min. Animals were then placed back in their cages and 2 identical approximately 5×5 cm objects were placed in the top left and right corner of the testing area. Animals were allowed to explore the two objects in the testing area for 5 min before being returned to their cages. After an hour interval one of the objects was relocated and the animals were allowed to explore the testing area once again for 3 min. After each trial, the testing area and the objects were thoroughly cleaned with 70% ethanol solution. All the trials, including habituation, were recorded with a high resolution camera and the amount of time each animal spent exploring the objects was analyzed. Any animals that presented a preference for either of the two identical objects, before replacement with the novel location, were eliminated from the analysis. Both male and female animals were used in the study.
Long-term memory formation paradigm in contextual fear conditioning was adapted from a previously described protocol with modifications. The experiment was performed using conditioning chamber made of plexiglas housed in a soundproof isolation cubicle and equipped with a stainless-steel grid floor connected to a solid-state shock scrambler. The scrambler was connected to an electronic constant-current shock source that was controlled via an interface connected to a computer running FreezeFrame software (Coulbourn Instruments, Allentown, Pa., USA). A digital camera was mounted on the steel ceiling and behavior was recorded. […] Hippocampus-dependent fear memory formation was evaluated by scoring freezing behavior (the absence of all movement except for respiration). Percentage of total freezing time was assessed using the automated FreezeFrame system with a threshold set at 10%. […]

[4] = tested on: pericytes expressing Cre-dependent diphtheria toxin receptor
Experimental: as §1, §2
Tissue was incubated for 30 min in 20 μg/ml Proteinase K and the In Situ Cell Death Detection Kit (Roche) was used per the manufacturer's instructions. Sections were coverslipped as described above. For each image, ten microns maximum projection z-stacks were reconstructed and analyzed using ImageJ. […] In each animal 5 randomly selected fields from the cortex were analyzed in 3 nonadjacent sections (˜100 μm apart). Three animals per group were analyzed.
The quantitative analysis of pericyte coverage and numbers was restricted to CD13-positive cells that were associated with brain capillaries defined as microvessels ≤6 μm in diameter, as previously described. The endothelial-specific Lycopersicon esculentum lectin was used to visualize endothelial vascular profiles, and CD13 coverage of brain capillaries was determined as CD13-positive area (percentage) occupying lectin-positive endothelial capillary profiles, as previously. For each image, ten microns maximum projection z-stacks were reconstructed and analyzed using ImageJ. Pericyte numbers were determined by counting the number of CD13-positive cell bodies on the abluminal side of the endothelial membrane (lectin) that co-localized with DAPI (4′,6-diamidino-2-phenylindole)-positive nuclei and tdTomato-positive cell bodies using the Image J Cell Counter plug-in, as the Inventors and others previously described. The number of pericytes was expressed per mm^2 of tissue.

[5] = tested on: pericytes expressing Cre-dependent diphtheria toxin receptor; type: in vivo, mouse; conditions: TAM-treated Pericyte-CreER; iDTR mice; DT 1 μg i.p. per day for 10 days; 3 days after DT; versus vehicle
[6] = tested on: neurons; assay: NeuN-positive neuron numbers and SMI-312 neuritic density
Experimental: as §1
Animals were anesthetized with an i.p. injection of 100 mg/kg of ketamine and 50 mg/kg of 10 xylazine, and transcardially perfused first with 15 ml saline, followed by 20 ml of 4% paraformaldehyde (PFA) in PBS. Brains were removed, and post-fixed overnight at 4° C. before brain sections were cut at 30 μm thickness. Sections were blocked with 5% normal donkey serum (Vector Laboratories)/0.1% Triton-X/0.01M PBS and incubated with primary antibody diluted in blocking solution overnight at 4° C. […] Sections were imaged with a Zeiss LSM 510 confocal laser-scanning microscope using a series of high-resolution optical sections (1,024×1,024-pixel format) that were captured with a 25× water-immersion objective, with 1× zoom at 1-μm step intervals for Z-stacks. Laser settings for gain, digital offset and laser intensity were kept standardized between different treatments and experiments. Z-stack projections and pseudo-coloring were performed using ZEN software (Carl Zeiss Microimaging), and image post-analysis were performed using ImageJ software.
For each image, ten microns maximum projection z-stacks were reconstructed and analyzed using ImageJ. NeuN-positive neurons were determined using the ImageJ Cell Counter analysis tool. In each animal, five randomly selected fields from the cortex and the hippocampus in three nonadjacent sections (˜100 μm apart) were analyzed. Six animals per group were analyzed.

[7] = TAM-treated pericyte-CreER, iDTR mice, 3 days after DT compared to vehicle
[8] = cortex, TAM-treated pericyte-CreER, iDTR mice, 3 days after DT compared to vehicle
[9] = control iDTR animals treated with TAM and DT
[10] = somatosensory cortex and hippocampus, respectively, 15 days after DT compared to vehicle

Substance: diphtheria toxin [DT]
- reduction in the ZO-1 length on brain capillaries [1, 7]: 50%
- BBB changes ([1]; control iDTR animals that received TAM and DT): did not show any BBB changes
- increase in fibrin deposits [1, 8]: > 4 fold
- increase in plasma-derived immunoglobulin G deposits [1, 8]: > 4 fold
- ZO-1 expression ([1]; iDTR control animals treated with TAM and DT): No changes
- CBF response in the presence of acetylcholine ([2]; 10 μM acetylcholine superfused, 3 days after DT treatment or vehicle): no difference in CBF response
- CBF response in the presence of adenosine ([2]; 400 μM adenosine superfused, 3 days after DT treatment or vehicle): no difference in CBF response
- reduction in CBF response to hind limb electrical stimulus [2, 7]: 50%
- change in CBF responses ([2]; control iDTR animals that received TAM and DT treatment): No significant change
- novel object location and fear conditioning ([3]; TAM-treated pericyte-CreER, iDTR mice, 15 days after DT treatment): significant behavior deficits
- novel object location and fear conditioning ([3]; TAM-treated pericyte-CreER, iDTR mice, before treatment (0 d), 6 d of DT treatment, 3 days after last DT injection, versus vehicle): did not show deficits
- novel object location and fear conditioning [3, 9]: no differences
- number of astrocytes, astrocytic endfeet coverage on microvessels or microglia density ([4]; 3 days after DT treatment): no changes were observed
- pericyte coverage ([4]; TAM-treated control iDTR mice, same DT injection protocol): no changes in pericyte coverage
- loss of tdTomato-positive pericytes in brain capillaries ([4]; cortex and hippocampus, 3 days after DT treatment compared to vehicle): 95%
- pericyte cell death by TUNEL staining of perivascular tdTomato-positive nuclei ([4]; cortex, 3 days after DT compared to vehicle): contained fragmented DNA
- reduction in pericyte capillary coverage (CD13 on lectin-positive profiles) [4, 8]: 50%
- reduction in pericyte density (CD13-positive pericyte cell bodies) [4, 8]: 60%
- reduction in pericyte density (CD13-positive pericyte cell bodies) ([4]; hippocampus, TAM-treated pericyte-CreER, iDTR mice, 3 days after DT compared to vehicle): 58%
- loss in DTR protein levels in brain capillaries [5]: 90%
- loss of PDGFRβ protein in brain capillaries [5]: 60%
- neuronal or neuritic changes ([6]; before DT treatment and 3 days after last DT injection compared to vehicle): No significant neuronal or neuritic changes
- neuron counts and neuritic density [6, 9]: normal neuron counts and neuritic density
- loss of NeuN-positive neuronal cell bodies [6, 10]: 20-25%
- reduction in SMI-312-positive neuritic density [6, 10]: 30-40%

From patent publication US10342221B2, “Generation of an inducible pericyte-specific CRE mouse model” (University of Southern California, priority 2016, dated 2019)
